From patent US11441195B2, “Energetic cancer stem cells (e-CSCs): a new hyper-metabolic and proliferative tumor cell phenotype, driven by mitochondrial energy” (LUNELLA BIOTECH, INC., priority 2018, dated 2022)

Columns and labels:
[1] = system: 3D tumor sphere formation; conditions: cited from earlier work
[2] = system: S-H cells (MCF7 3D-spheroids); assay: S-H cell sub-population in MCF7 3D-spheroids after treatment (auto-fluorescence flow-cytometry); format: cell-based, human; conditions: for change in S-H cells: control to 100 nM, FIG. 8B/8C
Experimental: FIG. 8A is a bar graph showing mammosphere formation in MCF7 cells at various concentrations of DPI, and including Ribociclib at 100 nM. […] Most importantly, e-CSCs derived from 3D-spheroids are highly oxidative and can be effectively targeted with an OXPHOS inhibitor. Non-limiting examples of other OXPHOS inhibitors that may be used in the present approach include atovaquone, irinotecan, sorafenib, niclosamide, and berberine chloride.
Data were analyzed with FlowJo 10.1 software.
For 3D-spheroid suspensions, after 5 days of growth under low-attachment condition, the spheres were collected from six 225 cm2 flasks pre-coated with poly-HEMA and gently centrifuged at 100 g for 5 min. After centrifugation, 1 ml of 0.025% of trypsin was added to the “sphere-pellet” and incubated them at 37° C. for 5 minutes. Using a 25-gauge needle, the sphere-suspension was passed through the syringe 4 times. […] After creating these single-cell suspensions, they were subjected to standard flow-cytometry (using the SONY SH800 Cell Sorter) to isolate the auto-fluorescent cell sub-populations, as indicated above. Examples of flow-cytometry plots are included in the figures, and the gating strategy is shown.

[3] = breast cancer patients; cited from earlier work
[4] = system: MCF7 cells; assay: Mammosphere formation assay (3D-spheroids); format: cell-based, human; conditions: for mammosphere formation in MCF7 cells: dose-dependent (0, 50 and 100 nM), FIG. 8A
Experimental: Mammosphere formation assay (for generating 3D-spheroids): A single-cell suspension was prepared using enzymatic, and manual disaggregation (25 gauge needle). […] After 5 days of culture, 3D-spheres >50 μm were counted using an eye piece (“graticule”), and the percentage of cells plated which formed spheres was calculated and is referred to as percent mammosphere formation, and was normalized to one (1=100% MSF). Mammosphere formation efficiency was analyzed in both the “low” and “high” sub-populations of auto-fluorescent cells, generated from either 2D-monolayers (M-L vs. M-H) or 3D-spheroids (S-L vs. S-H). All mammosphere experiments were performed in triplicate, at least 3 times independently.

[5] = system: MCF7 cells; conditions: cited from earlier work
[6] = system: MCF7 monolayers; conditions: after 130 hours of DPI treatment, FIG. 7C
Experimental: The data represents 100,000 cells after 120 hours of DPI treatment.
Vital mitochondrial staining: Cells were trypsinized and re-suspended into a 1×10^6 cell/ml solution in PBS. 10 nM of MitoTracker Deep-Red (Thermo Fisher Scientific) was added for 30 minutes at 37° C. before centrifugation and re-suspension in PBS Ca/Mg for FACS analysis (ATTUNE NxT) or Cell Sorting (SONY SH 800). All subsequent steps were performed in the dark. Data analysis was performed using FlowJo software.

[7] = system: M-H cells from MCF7 monolayers

Compound: CC[C@H]1OC(=O)[C@H](C)[C@@H](O[C@H]2C[C@@](C)(OC)[C@@H](O)[C@H](C)O2)[C@H](C)[C@@H](O[C@@H]2O[C@H](C)C[C@H](N(C)C)[C@H]2O)[C@](C)(O)C[C@@H](C)CN(C)[C@H](C)[C@@H](O)[C@]1(C)O [azithromycin]
- 3D tumor sphere formation [1]: successfully blocked

Compound: CCCCC[C@H](CC(=O)NO)C(=O)N[C@H](C(=O)N1CCC[C@H]1CO)C(C)C [actinonin]
- 3D tumor sphere formation [1]: successfully blocked

Compound: CC[C@H]1/C=C/C=C/C[C@@H](C)[C@H](O)[C@@](C)(O)C(=O)[C@@H](C)[C@H](O)[C@@H](C)C(=O)[C@@H](C)[C@H](O)[C@@H](C)/C=C/C(=O)O[C@@H]2[C@H](C)[C@H](CC1)O[C@]1(CC[C@H](C)[C@H](C[C@@H](C)O)O1)[C@H]2C [oligomycin]
- 3D tumor sphere formation [1]: successfully blocked

Compound: CN(C)c1cc(NC(=O)CNC(C)(C)C)c(O)c2c1C[C@H]1C[C@H]3[C@H](N(C)C)C(O)=C(C(N)=O)C(=O)[C@@]3(O)C(O)=C1C2=O [tigecycline]
- 3D tumor sphere formation [1]: successfully blocked

Compound: COc1ccc([C@@H]2CC(=O)c3c(O)cc(O[C@@H]4O[C@H](COC(=O)CC(C)(O)CC(=O)O)[C@@H](O)[C@H](O)[C@H]4O[C@@H]4O[C@@H](C)[C@H](O)[C@@H](O)[C@H]4O)cc3O2)cc1O (stereo partly shown) [brutieridin]
- 3D tumor sphere formation [1]: successfully blocked

Compound: C[C@@H]1O[C@@H](O[C@@H]2[C@@H](Oc3cc(O)c4c(c3)O[C@H](c3ccc(O)cc3)CC4=O)O[C@@H](COC(=O)C[C@@](C)(O)CC(=O)O)[C@H](O)[C@H]2O)[C@@H](O)[C@H](O)[C@H]1O [melitidin]
- 3D tumor sphere formation [1]: successfully blocked

Compound: CN(C)C(=O)c1cc2cnc(Nc3ccc(N4CCNCC4)cn3)nc2n1C1CCCC1 [Ribociclib]
- propagation of S-H cells ([2]; FIGS. 8A-C): effectively inhibits
- change in S-H cells [2]: decreasing
- most common side-effects [3]: neutropenia, anemia and GI-distress
- mammosphere formation in MCF7 cells [4]: inhibited

Compound: COc1ccc2cc3[n+](cc2c1OC)CCc1cc2c(cc1-3)OCO2 [berberine]
- 3D tumor sphere formation [1]: successfully blocked

Compound: COc1nc2ccc(Br)cc2cc1[C@@H](c1ccccc1)[C@@](O)(CCN(C)C)c1cccc2ccccc12 [bedaquiline]
- 3D tumor sphere formation [1]: successfully blocked

Compound: Cc1n[nH]c(C)c1Cc1sc2c(c1C(=O)N1C[C@H](O)CO1)c(=O)n(C)c(=O)n2CC(C)C [AR-C155858]
- 3D tumor sphere formation [1]: successfully blocked

Compound: [Cl-].c1ccc2c(c1)[I+]c1ccccc1-2 [DPI, Diphenyleneiodonium chloride]
- depletion of S-H cells in anchorage-independent single live cells ([2]; 100 nM): ~60%
- change in S-H cells [2]: decreasing
- 3D-spheroid formation in MCF7 cells [4]: inhibits
- 3D-mammosphere formation ([4]; 100 nM): almost completely inhibited
- mammosphere formation in MCF7 cells [4]: inhibited
- mitochondrial function [5]: selectively inhibits
- toxic side effects [5]: without any toxic side effects
- changes in cell viability or apoptosis ([5]; prior studies): did not induce changes
- metabolic phenotype shift ([5]; prior studies): shifted the cells towards a more glycolytic phenotype
- mitochondrial mass (MitoTracker) [6]: increased
- increase in the number of M-H cells ([7]; 100 nM DPI, 2D-monolayer cultures, 5-day period): ~7.5 fold
- percentage of M-H cells after treatment ([7]; 5-day period (120 hours), concentration dependent, FIG. 7B): increased
